Columns and labels:
[1] = Inhibition of PKA (unknown origin); design: species or system Homo sapiens
[2] = molecular target: Rho-associated protein kinase 1 (Homo sapiens, UniProt Q13464); test: Inhibition of ROCK-1 (unknown origin)
[3] = molecular target: Rho-associated protein kinase 2 (Homo sapiens, UniProt O75116); test: Inhibition of ROCK-2 (unknown origin)
[4] = Inhibition of PKA (unknown origin) using cyclic AMP response element binding protein as substrate after 5 mins in presence of [gamma-32P]-ATP; design: species or system Homo sapiens

Sequence of Rho-associated protein kinase 1 (Q13464 whole entry): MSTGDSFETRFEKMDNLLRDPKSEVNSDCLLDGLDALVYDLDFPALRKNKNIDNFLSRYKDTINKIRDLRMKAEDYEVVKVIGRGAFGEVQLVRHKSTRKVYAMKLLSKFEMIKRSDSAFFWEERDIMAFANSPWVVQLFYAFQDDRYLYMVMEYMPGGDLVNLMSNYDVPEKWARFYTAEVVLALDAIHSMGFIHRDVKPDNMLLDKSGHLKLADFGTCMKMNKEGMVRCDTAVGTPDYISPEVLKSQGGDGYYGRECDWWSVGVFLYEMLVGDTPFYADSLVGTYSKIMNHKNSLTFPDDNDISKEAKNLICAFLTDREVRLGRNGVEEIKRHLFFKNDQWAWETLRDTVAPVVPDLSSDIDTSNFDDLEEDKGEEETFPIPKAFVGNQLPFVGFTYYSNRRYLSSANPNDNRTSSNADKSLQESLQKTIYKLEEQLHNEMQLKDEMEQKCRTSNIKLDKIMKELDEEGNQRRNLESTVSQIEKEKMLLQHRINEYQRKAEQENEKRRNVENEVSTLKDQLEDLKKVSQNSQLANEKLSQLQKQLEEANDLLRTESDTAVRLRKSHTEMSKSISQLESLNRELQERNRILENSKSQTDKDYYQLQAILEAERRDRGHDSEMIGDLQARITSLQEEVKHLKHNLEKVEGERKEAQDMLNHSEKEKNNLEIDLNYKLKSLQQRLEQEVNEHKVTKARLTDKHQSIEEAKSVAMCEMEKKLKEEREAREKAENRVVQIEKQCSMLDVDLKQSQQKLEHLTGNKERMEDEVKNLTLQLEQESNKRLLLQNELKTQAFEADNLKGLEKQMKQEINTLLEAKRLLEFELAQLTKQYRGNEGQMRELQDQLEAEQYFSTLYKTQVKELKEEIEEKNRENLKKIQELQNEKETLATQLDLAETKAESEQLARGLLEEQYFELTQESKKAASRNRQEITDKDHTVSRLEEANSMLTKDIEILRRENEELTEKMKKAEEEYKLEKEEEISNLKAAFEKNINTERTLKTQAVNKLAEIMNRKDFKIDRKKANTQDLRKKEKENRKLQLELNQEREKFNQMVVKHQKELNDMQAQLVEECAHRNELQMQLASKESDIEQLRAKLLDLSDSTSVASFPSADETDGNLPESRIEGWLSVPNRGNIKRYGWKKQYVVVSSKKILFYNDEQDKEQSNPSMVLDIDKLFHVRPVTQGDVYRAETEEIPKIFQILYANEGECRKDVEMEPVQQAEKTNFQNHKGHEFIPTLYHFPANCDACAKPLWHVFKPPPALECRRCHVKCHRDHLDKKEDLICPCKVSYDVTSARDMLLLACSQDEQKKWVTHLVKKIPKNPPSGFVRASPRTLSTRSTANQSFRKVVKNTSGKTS
Sequence of Rho-associated protein kinase 2 (O75116 whole entry): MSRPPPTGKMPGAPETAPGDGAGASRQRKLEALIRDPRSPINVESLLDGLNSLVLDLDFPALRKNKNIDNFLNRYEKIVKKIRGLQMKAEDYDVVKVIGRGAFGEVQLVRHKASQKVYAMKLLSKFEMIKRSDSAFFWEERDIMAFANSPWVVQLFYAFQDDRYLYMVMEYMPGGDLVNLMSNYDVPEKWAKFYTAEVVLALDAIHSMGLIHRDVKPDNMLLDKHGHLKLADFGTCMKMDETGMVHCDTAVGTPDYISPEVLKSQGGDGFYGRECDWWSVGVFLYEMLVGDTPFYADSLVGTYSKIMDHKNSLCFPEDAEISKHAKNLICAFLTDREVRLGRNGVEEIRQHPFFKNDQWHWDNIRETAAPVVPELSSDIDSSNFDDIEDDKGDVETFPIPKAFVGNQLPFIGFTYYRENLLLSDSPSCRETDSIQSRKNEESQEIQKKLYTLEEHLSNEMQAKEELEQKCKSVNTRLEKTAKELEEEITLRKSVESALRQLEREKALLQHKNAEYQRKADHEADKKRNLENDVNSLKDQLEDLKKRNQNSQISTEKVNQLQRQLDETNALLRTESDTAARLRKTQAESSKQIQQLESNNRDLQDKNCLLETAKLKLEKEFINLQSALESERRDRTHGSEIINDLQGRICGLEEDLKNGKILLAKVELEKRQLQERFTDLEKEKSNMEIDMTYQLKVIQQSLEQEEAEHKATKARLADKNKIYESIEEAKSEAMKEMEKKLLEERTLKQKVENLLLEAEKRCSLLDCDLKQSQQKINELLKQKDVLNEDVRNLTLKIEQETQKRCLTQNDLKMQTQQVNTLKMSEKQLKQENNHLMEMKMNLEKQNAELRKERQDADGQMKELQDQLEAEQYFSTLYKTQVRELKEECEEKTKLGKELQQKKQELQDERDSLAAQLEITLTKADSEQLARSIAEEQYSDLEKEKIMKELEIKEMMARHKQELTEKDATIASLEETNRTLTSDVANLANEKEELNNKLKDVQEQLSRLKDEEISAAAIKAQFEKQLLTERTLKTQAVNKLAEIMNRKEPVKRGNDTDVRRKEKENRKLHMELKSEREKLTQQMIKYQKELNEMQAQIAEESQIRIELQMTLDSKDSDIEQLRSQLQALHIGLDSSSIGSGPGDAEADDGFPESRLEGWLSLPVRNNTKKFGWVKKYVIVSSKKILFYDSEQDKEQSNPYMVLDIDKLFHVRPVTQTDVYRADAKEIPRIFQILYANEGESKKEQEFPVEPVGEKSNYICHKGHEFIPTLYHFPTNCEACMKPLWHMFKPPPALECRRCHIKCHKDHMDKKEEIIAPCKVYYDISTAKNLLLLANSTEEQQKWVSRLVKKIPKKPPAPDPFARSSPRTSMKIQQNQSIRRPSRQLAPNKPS

Row | Compound | IC50 [1] | IC50 [2] | IC50 [3] | IC50 [4]
1 | C[C@@H](N)[C@H]1CC[C@H](C(=O)Nc2ccnc3[nH]ccc23)CC1 | 290 nM | 30 nM | 10 nM | 
2 | Cc1cncc2cccc(S(=O)(=O)N3CCCNC[C@@H]3C)c12 |  |  |  | 3030 nM
